Reference: patent publication US8247211B2, “Glycopeptide antibiotics” (American Cyanamid Company, priority 2001, dated 2012)
Converted amounts (≈) assume the structure as drawn.

Experiments:
Assay in all cases: In vitro antibacterial evaluation: minimum inhibitory concentration (MIC), broth dilution method
Assay type in all cases: cell-based
[1] = test system: Enterococcus sp.
Method in brief: (§1)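 Following NCCLS approved standard M7-A2, compounds are serially diluted from 64 to 0.06 μg/mL in Muller-Hinton II […] and inoculated at 5×10^5 CFU/mL; the MIC is the minimum concentration at which growth is inhibited.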

[2] = test system: Escherichia coli
Method in brief: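 NCCLS M7-A2 broth dilution; Muller-Hinton II […]; 5×10^5 CFU/mL; 64-0.06 μg/mL. MIC = lowest concentration with no growth.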

[3] = test system: Streptococcus sp.
Method in brief: as §1

[4] = test system: Staphylococcus sp.; settings: broth dilution, 18 hours at 35° C.
Method in brief: as §1

[5] = broth dilution, inoculum 5×10^5 CFU/mL, 18 hours at 35° C.

Compound: CC(c1ccccc1)C1NC(=O)CNC(=O)C(CO)NC(=O)C(C(O)C2CNC(=N)N2C2OC(CO)C(O)C(O)C2O)NC(=O)C(C(O)C2CNC(=N)N2)NC(=O)C(Cc2ccc(OC3OC(CO)C(OC4OC5COC(c6ccc(C=Cc7ccccc7)cc6)OC5C(O)C4O)C(O)C3O)cc2)NC1=O (stereo not drawn) [Example 172]
- MIC Enterococcus avium (GC 4558) [1, 5]: 4 µg/mL (≈ 2.69 µM)
- MIC Enterococcus faecalis (ATCC 29212) [1, 5]: 8 µg/mL (≈ 5.39 µM)
- MIC Enterococcus faecalis (GC 2242) [1, 5]: 4 µg/mL (≈ 2.69 µM)
- MIC Enterococcus faecalis (GC 2691) [1, 5]: 4 µg/mL (≈ 2.69 µM)
- MIC Enterococcus faecalis (GC 3059) [1, 5]: 8 µg/mL (≈ 5.39 µM)
- MIC Enterococcus faecalis (GC 4552) [1, 5]: 8 µg/mL (≈ 5.39 µM)
- MIC Enterococcus faecalis (GC 4553) [1, 5]: 4 µg/mL (≈ 2.69 µM)
- MIC Enterococcus faecalis (GC 4554) [1, 5]: 4 µg/mL (≈ 2.69 µM)
- MIC Enterococcus faecalis (GC 6189) [1, 5]: 2 µg/mL (≈ 1.35 µM)
- MIC Enterococcus faecium (GC 2243) [1, 5]: 8 µg/mL (≈ 5.39 µM)
- MIC Enterococcus faecium (GC 4556) [1, 5]: 8 µg/mL (≈ 5.39 µM)
- MIC Enterococcus faecium (GC 4557) [1, 5]: 8 µg/mL (≈ 5.39 µM)
- MIC Enterococcus faecalis (ATCC 29212) ([1]; strain ATCC 29212): 8 µg/mL (≈ 5.39 µM)
- MIC Enterococcus faecalis (GC 2242) ([1]; strain GC 2242): 4 µg/mL (≈ 2.69 µM)
- MIC Enterococcus faecium (GC 2243) ([1]; strain GC 2243): 8 µg/mL (≈ 5.39 µM)
- MIC Enterococcus faecalis (GC 2691) ([1]; strain GC 2691): 4 µg/mL (≈ 2.69 µM)
- MIC Enterococcus faecalis (GC 3059) ([1]; strain GC 3059): 8 µg/mL (≈ 5.39 µM)
- MIC Enterococcus faecalis (GC 4552) ([1]; strain GC 4552): 8 µg/mL (≈ 5.39 µM)
- MIC Enterococcus faecalis (GC 4553) ([1]; strain GC 4553): 4 µg/mL (≈ 2.69 µM)
- MIC Enterococcus faecalis (GC 4554) ([1]; strain GC 4554): 4 µg/mL (≈ 2.69 µM)
- MIC Enterococcus faecium (GC 4556) ([1]; strain GC 4556): 8 µg/mL (≈ 5.39 µM)
- MIC Enterococcus faecium (GC 4557) ([1]; strain GC 4557): 8 µg/mL (≈ 5.39 µM)
- MIC Enterococcus avium (GC 4558) ([1]; strain GC 4558): 4 µg/mL (≈ 2.69 µM)
- MIC Enterococcus faecalis (GC 6189) ([1]; strain GC 6189): 2 µg/mL (≈ 1.35 µM)
- MIC Escherichia coli (ATCC 25922) ([2]; strain ATCC 25922): >64 µg/mL
- MIC Escherichia coli (GC 4559) ([2]; strain GC 4559): >64 µg/mL
- MIC Escherichi coli (GC 4560) ([2]; strain GC 4560): 2 µg/mL (≈ 1.35 µM)
- MIC Streptococcus agalactiae (GC 4564) [3, 5]: <0.06 µg/mL
- MIC Streptococcus pneumoniae (ATCC 6301) [3, 5]: <0.06 µg/mL
- MIC Streptococcus pneumoniae (GC 1894) [3, 5]: <0.06 µg/mL
- MIC Streptococcus pneumoniae (GC 4565) [3, 5]: <0.06 µg/mL
- MIC Streptococcus pyogenes (GC 4563) [3, 5]: 0.12 µg/mL (≈ 0.0808 µM)
- MIC Streptococcus pneumoniae (ATCC 6301) ([3]; strain ATCC 6301): <0.06 µg/mL
- MIC Streptococcus pneumoniae (GC 1894) ([3]; strain GC 1894): <0.06 µg/mL
- MIC Streptococcus pyogenes (GC 4563) ([3]; strain GC 4563): 0.12 µg/mL (≈ 0.0808 µM)
- MIC Streptococcus agalactiae (GC 4564) ([3]; strain GC 4564): <0.06 µg/mL
- MIC Streptococcus pneumoniae (GC 4565) ([3]; strain GC 4565): <0.06 µg/mL
- MIC Coagulase Negative Staphylococcus (GC 4547) ([4]; 5×10^5 CFU/mL): 8 µg/mL (≈ 5.39 µM)
- MIC Coagulase Negative Staphylococcus (GC 4548) ([4]; 5×10^5 CFU/mL): 2 µg/mL (≈ 1.35 µM)
- MIC Coagulase Negative Staphylococcus (GC 4549) ([4]; 5×10^5 CFU/mL): 2 µg/mL (≈ 1.35 µM)
- MIC Coagulase Negative Staphylococcus (GC 4551) ([4]; 5×10^5 CFU/mL): 4 µg/mL (≈ 2.69 µM)
- MIC Coagulase Negative Staphylococcus (GC 6257) ([4]; 5×10^5 CFU/mL): 2 µg/mL (≈ 1.35 µM)
- MIC Staphylococcus aureus (ATCC 29213) ([4]; 5×10^5 CFU/mL): 4 µg/mL (≈ 2.69 µM)
- MIC Staphylococcus aureus (GC 1131) ([4]; 5×10^5 CFU/mL): 8 µg/mL (≈ 5.39 µM)
- MIC Staphylococcus aureus (GC 3051) ([4]; 5×10^5 CFU/mL): 4 µg/mL (≈ 2.69 µM)
- MIC Staphylococcus aureus (GC 3053) ([4]; 5×10^5 CFU/mL): 4 µg/mL (≈ 2.69 µM)
- MIC Staphylococcus aureus (GC 4541) ([4]; 5×10^5 CFU/mL): 4 µg/mL (≈ 2.69 µM)
- MIC Staphylococcus aureus (GC 4542) ([4]; 5×10^5 CFU/mL): 2 µg/mL (≈ 1.35 µM)
- MIC Staphylococcus aureus (GC 4544) ([4]; 5×10^5 CFU/mL): 8 µg/mL (≈ 5.39 µM)
- MIC Staphylococcus aureus (GC 4545) ([4]; 5×10^5 CFU/mL): 4 µg/mL (≈ 2.69 µM)
- MIC Staphylococcus aureus-SMITH (GC 4543) ([4]; 5×10^5 CFU/mL): 8 µg/mL (≈ 5.39 µM)
- MIC Staphylococcus haemolyticus (GC 4546) ([4]; 5×10^5 CFU/mL): 8 µg/mL (≈ 5.39 µM)
- MIC Staphylococcus aureus (ATCC 29213) ([4]; strain ATCC 29213): 4 µg/mL (≈ 2.69 µM)
- MIC Staphylococcus aureus (GC 1131) ([4]; strain GC 1131): 8 µg/mL (≈ 5.39 µM)
- MIC Staphylococcus aureus (GC 3051) ([4]; strain GC 3051): 4 µg/mL (≈ 2.69 µM)
- MIC Staphylococcus aureus (GC 3053) ([4]; strain GC 3053): 4 µg/mL (≈ 2.69 µM)
- MIC Staphylococcus aureus (GC 4541) ([4]; strain GC 4541): 4 µg/mL (≈ 2.69 µM)
- MIC Staphylococcus aureus (GC 4542) ([4]; strain GC 4542): 2 µg/mL (≈ 1.35 µM)
- MIC Staphylococcus aureus (GC 4544) ([4]; strain GC 4544): 8 µg/mL (≈ 5.39 µM)
- MIC Staphylococcus aureus (GC 4545) ([4]; strain GC 4545): 4 µg/mL (≈ 2.69 µM)
